For assay [1], the target named is Mcl-1 protein (UniProtKB primary accession number: Q07820) (Homo sapiens, UniProt Q07820). Nature of the assay: Inhibition of Mcl-1 by fluorescence polarisation, Method 1. It is filed as binding. To be noted: fluorescence polarisation test; Method 2 values are underlined in the patent (underlining not visible here); read-out: IC50 (M) Mcl-1 FP. The gist of the method:
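Binding was measured as fluorescence polarisation of a fluorescein-labelled ligand (1 nM) displaced from Mcl-1 (5 nM), both final. Compounds ran as 11-point series with final DMSO at 5%.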
(Polarisation of emitted light reports the rotation of a fluorescent probe.)

Assay [2] has as its system H929 multiple myeloma tumour line. The experiment in a line: In vitro cytotoxicity, Microculture Tetrazolium Assay. To be noted: Homo sapiens, NCI-H929, 48 h, H929 cells, 48 hours exposure, MTT; read-out: IC50 (μM) MTT H929. It is filed as cell-based. The procedure:
The cytotoxicity studies were carried out on the H929 multiple myeloma tumour line.
The cells are distributed onto microplates and exposed to the test compounds for 48 hours.

By IC50 is commonly meant the concentration needed to halve the response being measured.

Chain of Mcl-1 protein (Q07820 whole entry): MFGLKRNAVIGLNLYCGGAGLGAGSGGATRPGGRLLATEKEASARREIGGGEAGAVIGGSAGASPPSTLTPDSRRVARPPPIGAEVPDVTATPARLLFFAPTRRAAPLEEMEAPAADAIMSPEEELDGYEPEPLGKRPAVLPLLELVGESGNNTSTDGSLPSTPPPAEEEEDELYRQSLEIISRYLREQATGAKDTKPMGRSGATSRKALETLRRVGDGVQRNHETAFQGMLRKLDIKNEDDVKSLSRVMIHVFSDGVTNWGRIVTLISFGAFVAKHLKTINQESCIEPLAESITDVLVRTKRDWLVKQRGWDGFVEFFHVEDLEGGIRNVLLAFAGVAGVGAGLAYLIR

On to `COc1cc(COc2ccccc2CC(Oc2ncnc3sc(-c4ccc(F)cc4)c(-c4ccc(OCCN5CCN(C)CC5)c(Cl)c4C)c23)C(=O)O)nc(OC)n1` [Example 8, (2R)-2-{[(5Sa)-5-{3-chloro-2-methyl-4-[2-(4-methylpiperazin-1-yl)ethoxy]phenyl}-6-(4-fluorophenyl)thieno[2,3-d]pyrimidin-4-yl]oxy}-3-{2-[(2,6-dimethoxypyrimidin-4-yl)methoxy]phenyl}propanoic acid], for which the half-maximal inhibitory concentration (IC50) is 1.6e-08 M in assay [1] and 0.145 µM in assay [2].
Turning to `Cc1cc(COc2ccccc2CC(Oc2ncnc3sc(-c4ccc(F)cc4)c(-c4ccc(OCCN5CCN(C)CC5)c(Cl)c4C)c23)C(=O)O)no1` [Example 9, (2R)-2-{[(5Sa)-5-{3-chloro-2-methyl-4-[2-(4-methylpiperazin-1-yl)ethoxy]phenyl}-6-(4-fluorophenyl)thieno[2,3-d]pyrimidin-4-yl]oxy}-3-{2-[(5-methyl-1,2-oxazol-3-yl)methoxy]phenyl}propanoic acid], the IC50 amounted to 9.3e-09 M in assay [1] and 0.363 µM in assay [2].
The corresponding values for `Cc1c(-c2c(-c3ccc(F)cc3)sc3ncnc(OC(Cc4ccccc4OCc4ccc(F)cn4)C(=O)O)c23)ccc(OCCN2CCN(C)CC2)c1Cl` [Example 10, (2R)-2-{[(5Sa)-5-{3-chloro-2-methyl-4-[2-(4-methylpiperazin-1-yl)ethoxy]phenyl}-6-(4-fluorophenyl)thieno[2,3-d]pyrimidin-4-yl]oxy}-3-{2-[(5-fluoropyridin-2-yl)methoxy]phenyl}propanoic acid] are 9.7e-09 M and 0.275 µM.
As for `Cc1c(-c2c(-c3ccc(F)cc3)sc3ncnc(OC(Cc4ccccc4OCc4cccc(-c5ccco5)n4)C(=O)O)c23)ccc(OCCN2CCN(C)CC2)c1Cl` [Example 11, (2R)-2-{[(5Sa)-5-{3-chloro-2-methyl-4-[2-(4-methylpiperazin-1-yl)ethoxy]phenyl}-6-(4-fluorophenyl)thieno[2,3-d]pyrimidin-4-yl]oxy}-3-(2-{[6-(furan-2-yl)pyridin-2-yl]methoxy}phenyl)propanoic acid], the IC50 turned out to be 4.4e-08 M in assay [1] and 0.13 µM in assay [2].
For the compound `Cc1c(-c2c(-c3ccc(F)cc3)sc3ncnc(OC(Cc4ccccc4OCc4cccc(N5CCOCC5)n4)C(=O)O)c23)ccc(OCCN2CCN(C)CC2)c1Cl` [Example 12, (2R)-2-{[(5Sa)-5-{3-chloro-2-methyl-4-[2-(4-methylpiperazin-1-yl)ethoxy]phenyl}-6-(4-fluorophenyl)thieno[2,3-d]pyrimidin-4-yl]oxy}-3-(2-{[6-(morpholin-4-yl)pyridin-2-yl]methoxy}phenyl)propanoic acid], the half-inhibitory concentration (IC50) was 1.6e-08 M in assay [1] and 0.076 µM in assay [2].
Regarding `CCOc1cccc(COc2ccccc2CC(Oc2ncnc3sc(-c4ccc(F)cc4)c(-c4ccc(OCCN5CCN(C)CC5)c(Cl)c4C)c23)C(=O)O)n1` [Example 13, (2R)-2-{[(5Sa)-5-{3-chloro-2-methyl-4-[2-(4-methylpiperazin-1-yl)ethoxy]phenyl}-6-(4-fluorophenyl)thieno[2,3-d]pyrimidin-4-yl]oxy}-3-{2-[(6-ethoxypyridin-2-yl)methoxy]phenyl}propanoic acid], the IC50 came out at 2.2e-08 M in assay [1] and 0.146 µM in assay [2].
The corresponding values for `Cc1c(-c2c(-c3ccc(F)cc3)sc3ncnc(OC(Cc4ccccc4OCc4ccn(CC5CCCCC5)n4)C(=O)O)c23)ccc(OCCN2CCN(C)CC2)c1Cl` [Example 15, (2R)-2-{[(5Sa)-5-{3-chloro-2-methyl-4-[2-(4-methylpiperazin-1-yl)ethoxy]phenyl}-6-(4-fluorophenyl)thieno[2,3-d]pyrimidin-4-yl]oxy}-3-(2-{[1-(cyclohexylmethyl)-1H-pyrazol-3-yl]methoxy}phenyl)propanoic acid] are 3.7e-08 M and 0.494 µM.
In the case of `Cc1cc(COc2ccccc2CC(Oc2ncnc3sc(-c4ccc(F)cc4)c(-c4ccc(OCCN5CCN(C)CC5)c(Cl)c4C)c23)C(=O)O)ccn1` [Example 16, (2R)-2-{[(5Sa)-5-{3-chloro-2-methyl-4-[2-(4-methylpiperazin-1-yl)ethoxy]phenyl}-6-(4-fluorophenyl)thieno[2,3-d]pyrimidin-4-yl]oxy}-3-{2-[(2-methylpyridin-4-yl)methoxy]phenyl}propanoic acid], the results for the IC50 in assay [1] and in assay [2] were 5.9e-09 M and 0.095 µM, respectively.
For the compound `Cc1c(-c2c(-c3ccc(F)cc3)sc3ncnc(OC(Cc4ccccc4OCc4ccnc(C(F)(F)F)c4)C(=O)O)c23)ccc(OCCN2CCN(C)CC2)c1Cl` [Example 17, (2R)-2-{[(5Sa)-5-{3-chloro-2-methyl-4-[2-(4-methylpiperazin-1-yl)ethoxy]phenyl}-6-(4-fluorophenyl)thieno[2,3-d]pyrimidin-4-yl]oxy}-3-(2-{[2-(trifluoromethyl)pyridin-4-yl]methoxy}phenyl)propanoic acid], the half-maximal inhibitory concentration (IC50) in assay [1] came to 1.2e-08 M; in assay [2], 0.062 µM.
Regarding `Cc1c(-c2c(-c3ccc(F)cc3)sc3ncnc(OC(Cc4ccccc4OCc4ccnc(-c5cccs5)c4)C(=O)O)c23)ccc(OCCN2CCN(C)CC2)c1Cl` [Example 18, (2R)-2-{[(5Sa)-5-{3-chloro-2-methyl-4-[2-(4-methylpiperazin-1-yl)ethoxy]phenyl}-6-(4-fluorophenyl)thieno[2,3-d]pyrimidin-4-yl]oxy}-3-(2-{[2-(thiophen-2-yl)pyridin-4-yl]methoxy}phenyl)propanoic acid], the IC50 was 8.3e-09 M in assay [1] and 0.076 µM in assay [2].
As for `Cc1c(-c2c(-c3ccc(F)cc3)sc3ncnc(OC(Cc4ccccc4OCc4ccnc(Cl)c4)C(=O)O)c23)ccc(OCCN2CCN(C)CC2)c1Cl` [Example 19, (2R)-2-{[(5Sa)-5-{3-chloro-2-methyl-4-[2-(4-methylpiperazin-1-yl)ethoxy]phenyl}-6-(4-fluorophenyl)thieno[2,3-d]pyrimidin-4-yl]oxy}-3-{2-[(2-chloropyridin-4-yl)methoxy]phenyl}propanoic acid], the results for the IC50 in assay [1] and in assay [2] were 4.4e-09 M and 0.064 µM, respectively.
In the case of `Cc1c(-c2c(-c3ccc(F)cc3)sc3ncnc(OC(Cc4ccccc4OCc4ccnc(N5CCOCC5)c4)C(=O)O)c23)ccc(OCCN2CCN(C)CC2)c1Cl` [Example 20, (2R)-2-{[(5Sa)-5-{3-chloro-2-methyl-4-[2-(4-methylpiperazin-1-yl)ethoxy]phenyl}-6-(4-fluorophenyl)thieno[2,3-d]pyrimidin-4-yl]oxy}-3-(2-{[2-(morpholin-4-yl)pyridin-4-yl]methoxy}phenyl)propanoic acid], the IC50 in assay [1] turned out to be 6.4e-09 M; in assay [2] it was 0.08 µM.
On to `COc1cc(COc2ccccc2CC(Oc2ncnc3sc(-c4ccc(F)cc4)c(-c4ccc(OCCN5CCN(C)CC5)c(Cl)c4C)c23)C(=O)O)ccn1` [Example 21, (2R)-2-{[(5Sa)-5-{3-chloro-2-methyl-4-[2-(4-methylpiperazin-1-yl)ethoxy]phenyl}-6-(4-fluorophenyl)thieno[2,3-d]pyrimidin-4-yl]oxy}-3-{2-[(2-methoxypyridin-4-yl)methoxy]phenyl}propanoic acid], for which the IC50 in assay [1] is 1.6e-08 M; in assay [2] it was 0.162 µM.
Turning to `COCCOc1cc(COc2ccccc2CC(Oc2ncnc3sc(-c4ccc(F)cc4)c(-c4ccc(OCCN5CCN(C)CC5)c(Cl)c4C)c23)C(=O)O)ccn1` [Example 22, (2R)-2-{[(5Sa)-5-{3-chloro-2-methyl-4-[2-(4-methylpiperazin-1-yl)ethoxy]phenyl}-6-(4-fluorophenyl)thieno[2,3-d]pyrimidin-4-yl]oxy}-3-(2-{[2-(2-methoxyethoxy)pyridin-4-yl]methoxy}phenyl)propanoic acid], the IC50 in assay [1] was 8.3e-09 M; in assay [2], 0.092 µM.
The corresponding values for `Cc1c(-c2c(-c3ccc(F)cc3)sc3ncnc(OC(Cc4ccccc4OCc4ccnc(C(C)(C)C)n4)C(=O)O)c23)ccc(OCCN2CCN(C)CC2)c1Cl` [Example 23, (2R)-3-{2-[(2-tert-butylpyrimidin-4-yl)methoxy]phenyl}-2-{[(5Sa)-5-{3-chloro-2-methyl-4-[2-(4-methylpiperazin-1-yl)ethoxy]phenyl}-6-(4-fluorophenyl)thieno[2,3-d]pyrimidin-4-yl]oxy}propanoic acid] are 2.4e-08 M and 0.054 µM.
With `Cc1c(-c2c(-c3ccc(F)cc3)sc3ncnc(OC(Cc4ccccc4OCc4ccnc(C(C)C)n4)C(=O)O)c23)ccc(OCCN2CCN(C)CC2)c1Cl` [Example 24, (2R)-2-{[(5Sa)-5-{3-chloro-2-methyl-4-[2-(4-methylpiperazin-1-yl)ethoxy]phenyl}-6-(4-fluorophenyl)thieno[2,3-d]pyrimidin-4-yl]oxy}-3-(2-{[2-(propan-2-yl)pyrimidin-4-yl]methoxy}phenyl)propanoic acid], the IC50 in assay [1] came out at 8.1e-09 M; in assay [2] it was 0.012 µM.
Consider `Cc1c(-c2c(-c3ccc(F)cc3)sc3ncnc(OC(Cc4ccccc4OCc4ccnc(C(F)(F)F)n4)C(=O)O)c23)ccc(OCCN2CCN(C)CC2)c1Cl` [Example 25, (2R)-2-{[(5Sa)-5-{3-chloro-2-methyl-4-[2-(4-methylpiperazin-1-yl)ethoxy]phenyl}-6-(4-fluorophenyl)thieno[2,3-d]pyrimidin-4-yl]oxy}-3-(2-{[2-(trifluoromethyl)pyrimidin-4-yl]methoxy}phenyl)propanoic acid], for which the half-maximal inhibitory concentration (IC50) in assay [1] is 5.6e-09 M; in assay [2], 0.074 µM.
The corresponding values for `Cc1c(-c2c(-c3ccc(F)cc3)sc3ncnc(OC(Cc4ccccc4OCc4ccnc(C5CC5)n4)C(=O)O)c23)ccc(OCCN2CCN(C)CC2)c1Cl` [Example 26, (2R)-2-{[(5Sa)-5-{3-chloro-2-methyl-4-[2-(4-methylpiperazin-1-yl)ethoxy]phenyl}-6-(4-fluorophenyl)thieno[2,3-d]pyrimidin-4-yl]oxy}-3-{2-[(2-cyclopropylpyrimidin-4-yl)methoxy]phenyl}propanoic acid] are 1.1e-08 M and 0.028 µM.
